The results in this text go back to patent US20230172204A1 (BASF SE, priority 2020, published 2023).

Experiment [1] deals with Phakopsora pachyrhizi (F129L). In words: Protective control of soybean rust on soybeans (PHAKPA P2). Format: in vivo. Conditions: for % PHAKPA (F129L) Disease level P2 at 4 ppm: protective P2, 4 ppm; for % PHAKPA (F129L) Disease level P2 at 4 ppm / % PHAKPA (F129L) Disease level P2 at 16 ppm: soybean rust F129L; for % PHAKPA (F129L) Disease level P2 at 16 ppm: protective P2, 16 ppm.

Experiment [2] relates to Phakopsora pachyrhizi (F129L). In words: Protective control of soybean rust on soybeans (PHAKPA P6). Particulars: for % PHAKPA (F129L) Disease level P6 at 4 ppm: protective P6, 4 ppm; for % PHAKPA (F129L) Disease level P6 at 4 ppm / % PHAKPA (F129L) Disease level P6 at 16 ppm: soybean rust F129L; for % PHAKPA (F129L) Disease level P6 at 16 ppm: protective P6, 16 ppm; for PHAKPA (F129L) Disease level (%) P6 at 4 ppm / PHAKPA (F129L) Disease level (%) P6 at 16 ppm: P6 protective, % diseased leaf area. Type of experiment: in vivo.

Where [3] appears, read: P2 protective, % diseased leaf area.

For `CO/N=C(/C(=O)OC)c1cccc(C)c1CO/N=C(\C)c1c(F)cc(F)cc1F` [compound 169], in experiment [1], the “% PHAKPA (F129L) Disease level P2 at 4 ppm” value stood at 77% and the “% PHAKPA (F129L) Disease level P2 at 16 ppm” value is listed as 0%. Moreover, in experiment [2], the “% PHAKPA (F129L) Disease level P6 at 4 ppm” value worked out at 77% and the “% PHAKPA (F129L) Disease level P6 at 16 ppm” value is 0%.
As to `CNC(=O)/C(=N/OC)c1cccc(C)c1CO/N=C(\C)c1ccc(-c2cc(C)on2)cc1` [compound 64], in experiment [1], the “% PHAKPA (F129L) Disease level P2 at 4 ppm” value is 87% and the “% PHAKPA (F129L) Disease level P2 at 16 ppm” value came to 73%. Further, in experiment [2], the “% PHAKPA (F129L) Disease level P6 at 4 ppm” value came out at 80% and the “% PHAKPA (F129L) Disease level P6 at 16 ppm” value is on record as 43%.
For the compound `CCc1ccc(/C(C)=N/OCc2c(C)cccc2/C(=N\OC)C(=O)NC)cc1` [Ex. 165], in experiment [1] (setting [3]), the “PHAKPA (F129L) Disease level (%) P2 at 4 ppm” value (“PHAKPA … (%) P2 at 4 ppm” for short) amounted to 0%. Also, in experiment [1], the “% PHAKPA (F129L) Disease level P2 at 4 ppm” value turned out to be 0% and the “% PHAKPA (F129L) Disease level P2 at 16 ppm” value is on record as 0%. For the same compound, in experiment [2], the “PHAKPA (F129L) Disease level (%) P6 at 4 ppm” value (from here on “PHAKPA … (%) P6 at 4 ppm”) is given as 27%, the “% PHAKPA (F129L) Disease level P6 at 4 ppm” value amounted to 17% and the “% PHAKPA (F129L) Disease level P6 at 16 ppm” value stood at 0%.
Regarding `C=Cc1cccc(/C(=N\OC)C(=O)NC)c1CO/N=C(\C)c1cccc(C(F)(F)F)c1` [compound 14], in experiment [1], the “% PHAKPA (F129L) Disease level P2 at 4 ppm” value turned out to be 6% and the “% PHAKPA (F129L) Disease level P2 at 16 ppm” value came to 0%. In experiment [2], the “% PHAKPA (F129L) Disease level P6 at 4 ppm” value was 11% and the “% PHAKPA (F129L) Disease level P6 at 16 ppm” value is 1%.
For the compound `CCc1cc(/C(C)=N/OCc2c(C)cccc2/C(=N\OC)C(=O)NC)cc(C(F)(F)F)c1` [compound 151], in experiment [1], the “% PHAKPA (F129L) Disease level P2 at 4 ppm” value is 37% and the “% PHAKPA (F129L) Disease level P2 at 16 ppm” value worked out at 3%. In addition, in experiment [2], the “% PHAKPA (F129L) Disease level P6 at 4 ppm” value is listed as 53% and the “% PHAKPA (F129L) Disease level P6 at 16 ppm” value is on record as 6%.
For `CNC(=O)/C(=N/OC)c1cccc(C)c1CO/N=C(\C)c1ccc(/C(C)=N\OC)cc1C(F)(F)F` [compound 420] the same measures were 8%, 0%, 12% and 1%.
For `CO/N=C(/C(=O)OC)c1cccc(C)c1CO/N=C(\C)c1cc(Br)cc(Br)c1` [compound 135], in experiment [1], the “% PHAKPA (F129L) Disease level P2 at 4 ppm” value is on record as 15% and the “% PHAKPA (F129L) Disease level P2 at 16 ppm” value is on record as 1%. Also, in experiment [2], the “% PHAKPA (F129L) Disease level P6 at 4 ppm” value worked out at 16% and the “% PHAKPA (F129L) Disease level P6 at 16 ppm” value is 2%.
For `C#Cc1cc(/C(C)=N/OCc2c(C)cccc2/C(=N\OC)C(=O)NC)cc(C(F)(F)F)c1` [compound 148] the same measures were 9%, 2%, 13% and 7%.
The matching figures for `CO/N=C(/C(=O)OC)c1cccc(C)c1CO/N=C(\C)c1cc(Cl)cc(Cl)c1F` [compound 110]: 20%, 3%, 30% and 1%.
For `CNC(=O)/C(=N/OC)c1cccc(C)c1CO/N=C(\C)c1ccc(C(F)(F)F)cc1` [compound 39] the same measures were 30%, 4%, 15% and 2%.
For the compound `CNC(=O)/C(=N/OC)c1cccc(C)c1CO/N=C(\C)c1ccccc1C1CC1` [compound 219], in experiment [1], the “% PHAKPA (F129L) Disease level P2 at 4 ppm” value is recorded as 60% and the “% PHAKPA (F129L) Disease level P2 at 16 ppm” value is reported as 8%. In experiment [2], the “% PHAKPA (F129L) Disease level P6 at 4 ppm” value is listed as 87% and the “% PHAKPA (F129L) Disease level P6 at 16 ppm” value was found to be 43%.
The matching figures for `CNC(=O)/C(=N/OC)c1cccc(C)c1CO/N=C(\C)c1cc(Br)ccc1F` [compound 140]: 8%, 0%, 13% and 4%.
The matching figures for `CO/C=C(/C(=O)OC)c1cccc(C)c1CO/N=C(\C)c1ccccc1CC(F)(F)F` [compound 437]: 2%, 0%, 8% and 0%.
For `CNC(=O)/C(=N/OC)c1cccc(C)c1CO/N=C(\C)c1ccc(F)c(F)c1OC(F)(F)F` [compound 451] the same measures were 1%, 0%, 2% and 0%.
Regarding `CNC(=O)/C(=N/OC)c1cccc(C)c1CO/N=C(\SC)c1cccc(Cl)c1` [drawing 979, reference compound], the “PHAKPA … (%) P2 at 4 ppm” value in experiment [1] (setting [3]) was 20%. Besides, the “PHAKPA (F129L) Disease level (%) P6 at 16 ppm” value in experiment [2] was found to be 9%.
As to `CNC(=O)/C(=N/OC)c1cccc(C)c1CO/N=C(\C)c1cc(-c2ccccc2)cc(C(F)(F)F)c1` [compound 149], in experiment [1], the “% PHAKPA (F129L) Disease level P2 at 4 ppm” value was determined as 83% and the “% PHAKPA (F129L) Disease level P2 at 16 ppm” value amounted to 45%. In addition, in experiment [2], the “% PHAKPA (F129L) Disease level P6 at 4 ppm” value is on record as 87% and the “% PHAKPA (F129L) Disease level P6 at 16 ppm” value came out at 31%.
With `CNC(=O)/C(=N/OC)c1cccc(C)c1CO/N=C(\C)c1cc(Cl)ccc1Cl` [Ex. 130], in experiment [1] (setting [3]), the “PHAKPA … (%) P2 at 4 ppm” value came to 33%. Further, in experiment [1], the “% PHAKPA (F129L) Disease level P2 at 4 ppm” value is 20% and the “% PHAKPA (F129L) Disease level P2 at 16 ppm” value came to 1%. For the same compound, in experiment [2], the “PHAKPA … (%) P6 at 4 ppm” value is reported as 67%, the “% PHAKPA (F129L) Disease level P6 at 4 ppm” value came out at 40% and the “% PHAKPA (F129L) Disease level P6 at 16 ppm” value came to 1%.
Turning to `CO/N=C(/C(=O)OC)c1cccc(C)c1CO/N=C(\C)c1ccc(OC)cc1OC(F)(F)F` [compound 373], in experiment [1], the “% PHAKPA (F129L) Disease level P2 at 4 ppm” value amounted to 77% and the “% PHAKPA (F129L) Disease level P2 at 16 ppm” value amounted to 27%. In experiment [2], the “% PHAKPA (F129L) Disease level P6 at 4 ppm” value was determined as 100% and the “% PHAKPA (F129L) Disease level P6 at 16 ppm” value came to 38%.
For `CNC(=O)/C(=N/OC)c1cccc(C)c1CO/N=C(\C)c1ccccc1C#N` [compound 225] the same measures were 83%, 27%, 100% and 97%.
In the case of `CNC(=O)/C(=N/OC)c1ccccc1CO/N=C(\C)c1cccc(Br)c1` [reference compound], the “PHAKPA … (%) P2 at 4 ppm” value in experiment [1] (setting [3]) amounted to 27%. Moreover, in experiment [2], the “PHAKPA … (%) P6 at 4 ppm” value came to 70%.
Consider `CNC(=O)/C(=N/OC)c1cccc(C)c1CO/N=C(\C)c1ccc(C)cc1` [Ex. 6, (2E)-2-Methoxyimino-N-methyl-2-[3-methyl-2-[[(E)-1-(p-tolyl)ethylideneamino]oxymethyl]phenyl]acetamide], for which the “PHAKPA … (%) P2 at 4 ppm” value in experiment [1] (setting [3]) is recorded as 0%. Also, in experiment [1], the “% PHAKPA (F129L) Disease level P2 at 4 ppm” value is recorded as 1% and the “% PHAKPA (F129L) Disease level P2 at 16 ppm” value is given as 0%. In experiment [2], the “PHAKPA … (%) P6 at 4 ppm” value is reported as 23%, the “% PHAKPA (F129L) Disease level P6 at 4 ppm” value came out at 19% and the “% PHAKPA (F129L) Disease level P6 at 16 ppm” value worked out at 1%.
On to `CO/N=C(/C(=O)OC)c1cccc(C)c1CO/N=C(\C)c1cc(Br)ccc1F` [compound 138], for which, in experiment [1], the “% PHAKPA (F129L) Disease level P2 at 4 ppm” value was 47% and the “% PHAKPA (F129L) Disease level P2 at 16 ppm” value stood at 2%. In experiment [2], the “% PHAKPA (F129L) Disease level P6 at 4 ppm” value turned out to be 35% and the “% PHAKPA (F129L) Disease level P6 at 16 ppm” value was 1%.
`CCC/C(=N\OCc1c(C)cccc1/C(=N\OC)C(=O)NC)c1ccccc1` [compound 388]: in experiment [1], the “% PHAKPA (F129L) Disease level P2 at 4 ppm” value was 1% and the “% PHAKPA (F129L) Disease level P2 at 16 ppm” value is on record as 0%. Also, in experiment [2], the “% PHAKPA (F129L) Disease level P6 at 4 ppm” value amounted to 3% and the “% PHAKPA (F129L) Disease level P6 at 16 ppm” value is given as 0%.
For `CNC(=O)/C(=N/OC)c1cccc(C)c1CO/N=C(\C)c1cccc(-c2ccccc2)c1` [compound 98], in experiment [1], the “% PHAKPA (F129L) Disease level P2 at 4 ppm” value stood at 3% and the “% PHAKPA (F129L) Disease level P2 at 16 ppm” value is recorded as 0%. Further, in experiment [2], the “% PHAKPA (F129L) Disease level P6 at 4 ppm” value worked out at 1% and the “% PHAKPA (F129L) Disease level P6 at 16 ppm” value was determined as 0%.
With `CNC(=O)/C(=N/OC)c1cccc(C)c1CO/N=C(\C)c1cccc(OC(F)F)c1` [compound 81], in experiment [1], the “% PHAKPA (F129L) Disease level P2 at 4 ppm” value is listed as 6% and the “% PHAKPA (F129L) Disease level P2 at 16 ppm” value is reported as 0%. In addition, in experiment [2], the “% PHAKPA (F129L) Disease level P6 at 4 ppm” value was found to be 2% and the “% PHAKPA (F129L) Disease level P6 at 16 ppm” value is listed as 0%.
As for `CNC(=O)/C(=N/OC)c1cccc(C)c1CO/N=C(\C)c1ccc(C#N)cc1` [Ex. 159], the “PHAKPA (F129L) Disease level (%) P2 at 16 ppm” value in experiment [1] (P2 protective, 16 ppm, % diseased leaf area) came out at 0%. Besides, in experiment [1], the “% PHAKPA (F129L) Disease level P2 at 4 ppm” value is 28% and the “% PHAKPA (F129L) Disease level P2 at 16 ppm” value came out at 2%. Further, in experiment [2], the “PHAKPA (F129L) Disease level (%) P6 at 16 ppm” value was determined as 0%, the “% PHAKPA (F129L) Disease level P6 at 4 ppm” value came out at 28% and the “% PHAKPA (F129L) Disease level P6 at 16 ppm” value is reported as 1%.
As to `CO/N=C(/C(=O)OC)c1cccc(C)c1CO/N=C(\C)c1ccccc1Cl` [compound 116], in experiment [1], the “% PHAKPA (F129L) Disease level P2 at 4 ppm” value turned out to be 85% and the “% PHAKPA (F129L) Disease level P2 at 16 ppm” value is 57%. Besides, in experiment [2], the “% PHAKPA (F129L) Disease level P6 at 4 ppm” value turned out to be 85% and the “% PHAKPA (F129L) Disease level P6 at 16 ppm” value is 67%.
As for `CNC(=O)/C(=N/OC)c1ccccc1CO/N=C(\C)c1cc(Cl)ccc1Cl` [reference compound], in experiment [1] (setting [3]), the “PHAKPA … (%) P2 at 4 ppm” value is on record as 87%. The “PHAKPA … (%) P6 at 4 ppm” value in experiment [2] turned out to be 97%.
As for `CC/C(=N\OCc1c(C)cccc1/C(=N\OC)C(=O)OC)c1cccc(C(F)(F)F)c1` [compound 204], in experiment [1], the “% PHAKPA (F129L) Disease level P2 at 4 ppm” value was 50% and the “% PHAKPA (F129L) Disease level P2 at 16 ppm” value is recorded as 4%. In experiment [2], the “% PHAKPA (F129L) Disease level P6 at 4 ppm” value is reported as 80% and the “% PHAKPA (F129L) Disease level P6 at 16 ppm” value was determined as 5%.
